This test has as its system SARS-CoV-2. The format is cell-based. The settings on record: 1-hour contact at 22 ± 2° C., cleanser 100%, ethanol 70%.

Where only a bound is given, the exact number is not on record here.

As to `CCO` [Ethanol], the “LRV (log reduction value) compared to the virus control” value (<1 log reduction not considered active) was >4.3. The “Virus Titer” value (virus control titer 5.0, limit of detection 0.7) is reported as <0.7 log10 CCID50 of virus per 0.1 mL.

Values taken from US12419917B2, “Compositions and methods for treatment of conditions using fractionated honey” (NDAL MFG INC, priority 2021, dated 2025).
